What was measured:
[1] = target: T1, Apoptosis regulator Bcl-2 (Homo sapiens, UniProt P10415); experiment: Inhibition of Bcl-2 by fluorescence polarization assay
[2] = target: T1, Apoptosis regulator Bcl-2; experiment: Binding affinity to Bcl-2 by NMR titration assay
Bcl-2-like protein 1 = Bcl-2-like protein 1 (Homo sapiens, UniProt Q07817); experiment: Binding affinity to Bcl-XL by NMR titration assay
[3] = Selectivity ratio of Kd for Bcl-XL to Kd for Bcl-2
[4] = target: T1, Apoptosis regulator Bcl-2; experiment: Binding affinity to Bcl-2 by NMR titration assay in presence of 500 uM 1,1-bis(4-chlorophenyl)-3-(dimethylamino)propan-1-ol

T1 sequence (P10415 whole entry): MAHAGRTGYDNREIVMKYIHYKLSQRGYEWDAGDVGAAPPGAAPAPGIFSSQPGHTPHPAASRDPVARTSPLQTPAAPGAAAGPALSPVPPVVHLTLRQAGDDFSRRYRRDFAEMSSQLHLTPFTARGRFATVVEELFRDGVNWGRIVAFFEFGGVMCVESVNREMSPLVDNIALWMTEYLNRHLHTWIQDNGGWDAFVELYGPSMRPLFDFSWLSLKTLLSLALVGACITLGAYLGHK
Sequence of Bcl-2-like protein 1 (Q07817 whole entry): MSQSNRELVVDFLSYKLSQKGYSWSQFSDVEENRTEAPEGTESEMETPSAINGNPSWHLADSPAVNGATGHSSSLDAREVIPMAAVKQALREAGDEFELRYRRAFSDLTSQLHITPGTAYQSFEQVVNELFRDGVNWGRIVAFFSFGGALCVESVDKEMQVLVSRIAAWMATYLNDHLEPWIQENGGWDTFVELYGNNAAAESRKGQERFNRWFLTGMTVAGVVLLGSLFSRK

Row | SMILES | Ki [1] | Kd [2] | also measured
1 | CC(O)(c1ccc(Cl)cc1)c1ccc(Cl)c(CCOc2ccc(-c3ccc(C(=O)O)cc3)cc2)c1 (stereo not drawn) | 0.46 µM | – | –
2 | NC[C@](O)(c1ccccc1)c1ccc(F)cc1Cl | – | 250 µM | –
3 | CC(C)(C)c1ccc(C(O)(CCN2CCOCC2)c2ccc(Cl)c(CCOc3ccc(-c4ccc(C(=O)O)cc4)cc3)c2)cc1 (stereo not drawn) | 0.11 µM | – | –
4 | CN(C)CCCC(O)(c1ccccc1)c1cccc(CCOc2ccc(-c3ccc(C(=O)O)cc3)cc2)c1 (stereo not drawn) | 3.4 µM | – | –
5 | CN(C)CCCC(O)(c1ccccc1)c1cccc(OCCOc2ccc(-c3ccc(C(=O)O)cc3)cc2)c1 (stereo not drawn) | > 1 µM | – | –
6 | O=C(O)c1ccc(-c2ccc(OCCc3cc(C(O)(CCN4CCOCC4)c4ccc(Br)cc4)ccc3Cl)cc2)cc1 (stereo not drawn) | 0.2 µM | – | –
7 | CC(C)(C)c1ccc(C(O)(CCN2CCCC2)c2ccc(Cl)c(CCOc3ccc(-c4ccc(C(=O)O)cc4)cc3)c2)cc1 (stereo not drawn) | 0.04 µM | – | Selectivity ratio [3]: 1000
8 | CCc1ccc(-c2ccc(C(=O)O)cc2)cc1 | – | 300 µM | Kd [4]: > 1000 µM
9 | O=C(O)c1ccc(-c2ccc(OCCc3cc(C(O)(CCN4CCOCC4)c4ccc(Cl)cc4)ccc3Cl)cc2)cc1 (stereo not drawn) | 0.22 µM | – | –
10 | CCc1cccc(-c2ccc(C(=O)O)cc2)c1 | – | 100 µM | Kd [4]: 20 µM
11 | CN1CCN(C(c2ccccc2)c2ccc(Cl)cc2)CC1 (stereo not drawn) [CHLORCYCLIZINE] | – | 60 µM | Kd (Bcl-2-like protein 1): 700 µM
12 | O=C(O)c1ccc(-c2ccc(F)cc2)cc1 | – | 400 µM | Kd [4]: 430 µM

Now from value to compound, other results behind:

Row | Ki [1] | Kd [2] | SMILES | also measured
13 | – | 200 µM | CN(C)CCCC(O)(c1ccccc1)c1ccccc1 | Kd (Bcl-2-like protein 1): 5000 µM
14 | 12 µM | – | CN(C)CCCC(O)(c1ccccc1)c1ccc(OCCc2ccc(-c3ccc(C(=O)O)cc3)cc2)cc1 (stereo not drawn) | –
15 | – | 80 µM | CN(C)CCC[C@@](O)(c1ccccc1)c1ccc(Cl)cc1 | Kd (Bcl-2-like protein 1): 500 µM
16 | 83 µM | – | CN(C)CCCC(O)(c1ccccc1)c1ccc(OCc2ccc(-c3ccc(C(=O)O)cc3)cc2)cc1 (stereo not drawn) | –
17 | 4.6 µM | – | CN(C)CCCC(O)(c1ccccc1)c1cccc(OCCc2ccc(-c3ccc(C(=O)O)cc3)cc2)c1 (stereo not drawn) | –
18 | 5.8 µM | – | CN(C)CCCC(O)(c1ccccc1)c1ccc(OCc2cccc(-c3ccc(C(=O)O)cc3)c2)cc1 (stereo not drawn) | –
19 | 5 µM | – | CN(C)CCCC(O)(c1ccccc1)c1cccc(OCCc2cccc(-c3ccc(C(=O)O)cc3)c2)c1 (stereo not drawn) | –
20 | > 1 µM | – | CN(C)CCCC(O)(c1ccccc1)c1ccc(OCCOc2ccc(-c3ccc(C(=O)O)cc3)cc2)cc1 (stereo not drawn) | –
21 | 8 µM | – | CN(C)CCCC(O)(c1ccccc1)c1ccc(OCCc2cccc(-c3ccc(C(=O)O)cc3)c2)cc1 (stereo not drawn) | –
22 | 20 µM | – | CN(C)CCCC(O)(c1ccccc1)c1cccc(OCc2cccc(-c3ccc(C(=O)O)cc3)c2)c1 (stereo not drawn) | –
23 | 5.2 µM | – | CN(C)CCCC(O)(c1ccccc1)c1cccc(OCc2ccc(-c3ccc(C(=O)O)cc3)cc2)c1 (stereo not drawn) | –
24 | – | 20 µM | CN(C)CCCC(O)(c1ccc(Cl)cc1)c1ccc(Cl)cc1 | Selectivity ratio [3]: 20; Kd (Bcl-2-like protein 1): 450 µM

Reference: ChEMBL document CHEMBL1268906, “Discovery of a potent and selective Bcl-2 inhibitor using SAR by NMR” (Bioorg Med Chem Lett, 2010)
